Test results: patent publication US5698564A, “Diphenyl disulfide compounds” (Nisshin Flour Milling Co., Ltd., priority 1994, dated 1997)

What was measured:
[1] = tested on: release of TNFα (THP-1 cells); experiment: inhibition of the release of TNFα in THP-1 cells stimulated with PMA and polyinosic acid (ELISA); format: cell-based; details: Homo sapiens, PMA 2 μg/ml and polyinosic acid 200 μg/ml, 24 hours, read-out: IC50 (concentration to inhibit 50% the TNFα release)
Method: Compound 1, the present diphenyl disulfide compound obtained in Example 1, was evaluated for the activity to inhibit the release of TNFα, in accordance with the following method.
(§1) The THP-1 cells derived from human peripheral blood (ATCC TIB202) were suspended in RPMI 1640 medium (available from Bio-Whittaker Co., Ltd.) containing 10% (v/v) of fetal bovine serum, 2 mM of glutamine, 50 μM of 2-mercaptoethanol, 60 μg/ml of penicillin and 100 μg/ml of streptomycin.
The suspension of THP-1 cell was subcultured at 37° C. under the atmosphere of 95% […] and 5% carbon dioxide. A portion of the subcultured suspension was centrifuged at 1200 rpm at room temperature for 3 minutes to recover the subcultured THP-1 cells.
(§2) The resulting THP-1 cells were resuspended in RPMI 1640 medium containing 2% (v/v) of fetal bovine serum, 2 mM of glutamine, 50 μM of 2-mercaptoethanol, 60 μg/ml of penicillin and 100 μg/ml of streptomycin so as to provide a final THP-1 cell concentration of 3×10^6 cells/ml.
The resuspension of the cell was dispensed in 0.5 ml portions to wells of a 24-well plate for cell culture, and incubated at 37° C. for one hour. Each solution of the present Compound 1 dissolved in DMSO at the respective specified concentrations was added in 2.5 μl portions to each well. The plate was incubated at 37° C. under the atmosphere of 95% […] and 5% carbon dioxide for one hour. […]

[2] = tested on: production of IL-1β (THP-1 cells); experiment: inhibition of the production of IL-1β in THP-1 cells stimulated with PMA and polyinosic acid (enzyme immunoassay); format: cell-based; details: Homo sapiens, PMA 2 μg/ml and polyinosic acid, 24 hours, read-out: IC50 (concentration to inhibit 50% the IL-1β production)
Method: Compounds 1-3, the present diphenyl disulfide compounds obtained in Examples 1 and 2, were evaluated for the activity to inhibit the production of IL-1β, in accordance with the following method.
as §1
The suspension of the THP-1 cell was subcultured at 37° C. under the atmosphere of […] and 5% carbon dioxide. A portion of the subcultured suspension was centrifuged at 1200 rpm at room temperature for 3 minutes to recover the subcultured THP-1 cells.
as §2
The resuspension of the cell was dispensed in 0.5 ml portions to wells of a 24-well plate for cell culture. Then, each solution of the present Compounds 1-3 dissolved in DMSO at the respective specified concentrations was added in 2.5 μl portions to each well. The plate was incubated at 37° C. under the atmosphere of 95% […] and 5% carbon dioxide for one hour. Then, 12-o-tetradecanoylphorbol-13-acetate (PMA) and polyinosic acid were added to each well so as to provide final concentrations of 2 μg/ml and […] respectively. The plate was incubated at 37° C. under the atmosphere of 95% […] and 5% carbon dioxide for 24 hours. After incubation, a supernatant was recovered from each well by means of Pipetteman available from Gilson Co., Ltd. Then, an amount of the IL-1β in the supernatant was assayed by means of the enzyme immunoassay kit available from Cayman Chemical Co., Ltd. […]

Structure (SMILES)	IC50 [1]	IC50 [2]
Nc1ccccc1SSc1ccccc1Nc1ncccn1 [Compound 1]	19 µM	3.8 µM
O=[N+]([O-])c1ccc(SSc2ccccc2-c2nc3ccccc3[nH]2)c([N+](=O)[O-])c1 [Compound 3]		34 µM
c1cnc(Nc2ccccc2SSc2ccccc2Nc2ncccn2)nc1 [Compound 2]		34 µM
